{"source": "paper PMC5218480", "about": "(PLoS ONE, 2017)", "tested_on": "MV-4-11 cells", "assay": "Gene expression microarray analysis (Affymetrix PrimeView) and GSEA", "format": "cell-based, human", "conditions": "MV-4-11, 48 hours, 1 μM each", "data": [{"smiles": "Nc1ncn([C@@H]2O[C@H](CO)[C@@H](O)[C@H]2O)c(=O)n1", "note": "[azacitidine]", "values": [{"measurement": "genes down-regulated greater than 2-fold relative to vehicle control", "result": 12, "unit": "genes"}]}]}
